Assay results published in patent publication US20070078263A1, “BIARYL SUBSTITUTED HETEROCYCLE INHIBITORS OF LTA4H FOR TREATING INFLAMMATION” (deCODE Chemistry, Inc., priority 2005, published 2007).
Counter-ions that a name gives are not always drawn.

Biological target: T1, human LTA4 hydrolase (Homo sapiens, UniProt P09960)
T1 construct: A human LTA4 hydrolase full-length cDNA clone (NM 000895) was purchased; His tag (6xHis of vector pDEST17); made in house; host or cells: Escherichia coli BL21-AI
T1 sequence (P09960 1-611): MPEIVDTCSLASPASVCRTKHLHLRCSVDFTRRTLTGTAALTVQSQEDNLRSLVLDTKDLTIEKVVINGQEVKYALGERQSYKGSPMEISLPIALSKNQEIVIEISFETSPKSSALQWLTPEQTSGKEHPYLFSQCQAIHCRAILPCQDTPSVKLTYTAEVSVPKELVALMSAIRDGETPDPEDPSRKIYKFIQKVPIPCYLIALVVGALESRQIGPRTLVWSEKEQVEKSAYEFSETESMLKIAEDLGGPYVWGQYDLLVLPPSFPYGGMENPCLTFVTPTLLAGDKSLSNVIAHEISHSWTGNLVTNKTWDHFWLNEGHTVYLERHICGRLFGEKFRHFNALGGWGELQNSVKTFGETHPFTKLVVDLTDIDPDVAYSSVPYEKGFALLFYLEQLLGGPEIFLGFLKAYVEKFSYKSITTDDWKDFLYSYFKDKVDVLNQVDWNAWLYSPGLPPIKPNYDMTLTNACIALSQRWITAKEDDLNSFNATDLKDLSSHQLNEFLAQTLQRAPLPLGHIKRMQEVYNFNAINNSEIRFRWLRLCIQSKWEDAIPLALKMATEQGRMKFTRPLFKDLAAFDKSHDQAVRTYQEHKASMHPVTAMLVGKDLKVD
Test: In vitro assay testing inhibitory activity against purified recombinant human LTA4 hydrolase (LTB4 formed, LC-MS/MS);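 also: 200 nM enzyme preincubated 10 min at room temperature with serial inhibitor dilutions in pH 8.0 Tris buffer with BSA and 10% DMSO, then 2 µM LTA4 added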
Assay type: biochemical
Details: not given

| SMILES | IC50 [µM] |
| --- | --- |
| c1ccc(Cc2ccc(COC[C@H]3CCCN3)cc2)cc1 [Example 156, hydrochloride salt] | < 5 |
| O=C(O)CCCN1CCCC[C@@H]1COc1ccc(Oc2ccc(Cl)cc2)cc1 [Example 81, 4-{(R)-2-[4-(4-Chloro-phenoxy)-phenoxymethyl]-piperidin-1-yl}-butyric acid hydrochloride] | < 5 |

Same assay, conditions: recombinant human LTA4 hydrolase 200 nM, LTA4 2 μM; read-out: AvgIC50

| IC50 [µM] | SMILES |
| --- | --- |
| < 5 | c1ccc(Cc2ccc(OC[C@@H]3CCCN3)nc2)cc1 [Example 142, 5-Benzyl-2-((S)-1-pyrrolidin-2-ylmethoxy)-pyridine hydrochloride salt] |
| 20 to 100 | COc1cccc(COc2ccc(OC[C@H]3CCCN3)cc2)c1 [Example 97, (R)-2-[4-(3-Methoxy-benzyloxy)-phenoxymethyl]-pyrrolidine Hydrogen chloride salt] |
| < 5 | FC(F)(F)c1ccc(Oc2ccc(OC[C@@H]3CCCN3)cc2)cc1 [Example 24, (S)-2-[4-(4-trifluoromethyl-phenoxy)-phenoxymethyl]-pyrrolidine] |
| < 5 | COC(=O)CCN1CCC[C@@H]1COc1ccc(Cc2ccccc2)cc1 [Example 7, 3-[(R)-2-(4-benzyl-phenoxymethyl)-pyrrolidin-1-yl]-propionic acid methyl ester] |
| < 5 | O=C(O)CN1CCC[C@@H]1COc1ccc(Oc2ccc(C(F)(F)F)cc2)cc1 [Example 28, (R)-2-[4-(4-trifluoromethyl-phenoxy)-phenoxymethyl]-pyrrolidine-1-yl)acetic acid sodium salt] |
| < 5 | Cc1noc(CCCN2CCC[C@@H]2COc2ccc(Cc3ccccc3)cc2)n1 [Example 31] |
| < 5 | O[C@H]1CN[C@H](COc2ccc(Oc3ccccc3)cc2)C1 [Example 86, (3R,5S)-5-(4-Phenoxy-phenoxymethyl)-pyrrolidin-3-ol] |
| 5 to 20 | O=C(O)CCN1CCC[C@H]1COc1ccc(Cc2ccccc2)cc1 [Example 34, 3-[(S)-2-(4-Benzyl-phenoxymethyl)-pyrrolidin-1-yl]-propionic acid HCl salt] |
| < 5 | O=C(O)CCN1CCC[C@H]1COc1ccc(Oc2ccc(C(F)(F)F)cc2)cc1 [Example 26, (S)-2-[4-(4-trifluoromethyl-phenoxy)-phenoxymethyl]-pyrrolidine-1-yl}propionic acid sodium salt] |
| < 5 | O=C(O)CCN1CCC[C@@H]1COc1ccc(Oc2ccc(C(F)(F)F)cc2)cc1 [Example 29, (R)-2-[4-(4-trifluoromethyl-phenoxy)-phenoxymethyl]-pyrrolidine-1-yl}propionic acid sodium salt] |
| < 5 | Clc1ccc(Cc2ccc(OCC3CCCCN3)cc2)cc1 (stereo in doubt) [Example 165, (S)-2-[4-(4-Chlorobenzyl)-phenoxymethyl]-piperidine hydrochloride] |
| < 5 | c1coc(-c2ccc(Cc3ccc(OC[C@H]4CCCN4)cc3)cc2)n1 [Example 152, 2-{4-[4-((R)-1-Pyrrolidin-2-ylmethoxy)-benzyl]-phenyl}-oxazole] |
| < 5 | c1ncn(-c2ccc(Oc3ccc(OC[C@H]4CCCN4)cc3)cc2)n1 [Example 153, 1-{4-[4-((R)-1-Pyrrolidin-2-ylmethoxy)-phenoxy]-phenyl}-1H-[1,2,4]triazole hydrochloride salt] |
| < 5 | FC(F)(F)Oc1ccc(Oc2ccc(OC[C@H]3CCCN3)cc2)cc1 [Example 11, (R)-2-[4-(4-Trifluoromethoxy-phenoxy)-phenoxymethyl]-pyrrolidine hydrochloride] |
| < 5 | Clc1ccc(Oc2ccc(OC[C@@H]3CCCCN3Cc3ncno3)cc2)cc1 [Example 63, (S)-2-[4-(4-Chloro-phenoxy)-phenoxymethyl]-1-[1,2,4]oxadiazol-5-ylmethyl-piperidine hydrochloride] |
| 5 to 20 | c1cc(OC[C@@H]2CCCN2)ccc1Cc1ccc(N2CCC2)cc1 [Example 124, (S)-2-[4-(4-Azetidin-1-yl-benzyl)-phenoxymethyl]-pyrrolidine hydrogen chloride salt] |

| IC50 [µM] | SMILES |
| --- | --- |
| < 5 | c1ccc2oc(Oc3ccc(OC[C@H]4CCCN4)cc3)nc2c1 [Example 99, (R)-2-[4-(Benzooxazol-2-yloxy)-phenoxymethyl]-pyrrolidine Hydrogen chloride salt] |
| < 5 | c1ccc(-c2ccc(Oc3ccc(OC[C@H]4CCCN4)cc3)cc2)cc1 [Example 12, (R)-2-[4-(Biphenyl-4-yloxy)-phenoxymethyl]-pyrrolidine hydrochloride] |
| < 5 | c1csc(-c2ccc(Cc3ccc(OC[C@H]4CCCN4)cc3)cc2)n1 [Example 149, 2-{4-[4-((R)-1-Pyrrolidin-2-ylmethoxy)-benzyl]-phenyl}-thiazole hydrochloride salt] |
| < 5 | Cc1ccc(Oc2ccc(OC[C@H]3CCCN3)cc2)cc1 [Example 14, (R)-2-(4-p-Tolyloxy-phenoxymethyl)-pyrrolidine hydrochloride] |
| < 5 | Fc1ccc(COc2ccc(OC[C@H]3CCCN3)cc2)cc1F [Example 93, (R)-2-[4-(3,4-Difluoro-benzyloxy)-phenoxymethyl]-pyrrolidine Hydrogen chloride salt] |
| < 5 | O=C(O)CCCN1CCC[C@@H]1COc1ccc(-c2ccc(Cc3ccccc3)s2)cc1 [Example 171, 4-{(R)-2-[4-(5-Benzyl-thiophen-2-yl)-phenoxymethyl]-pyrrolidin-1-yl}-butyric acid] |
| < 5 | N#CC1(c2ccc(Oc3ccc(OC[C@H]4CCCN4)cc3)cc2)CC1 [Example 136, 1-{4-[4-((R)-1-Pyrrolidin-2-ylmethoxy)-phenoxy]-phenyl}-cyclopropanecarbonitrile hydrogen chloride salt] |
| < 5 | O=C(O)CCCN1CCC[C@H]1COc1ccc(Cc2ccc(-c3nccs3)cc2)cc1 [Example 151, 4-{(S)-2-[4-(4-Thiazol-2-yl-benzyl)-phenoxymethyl]-pyrrolidin-1-yl}-butylic acid hydrochloride salt] |
| < 5 | O=C1CC[C@@H](COc2ccc(Cc3ccccc3)cc2)N1 [Example 83, (S) 5-(4-Benzyl-phenoxymethyl)-pyrrolidin-2-one hydrochloride salt] |
| < 5 | Ic1ccc(Cc2ccc(OC[C@@H]3CCCN3)cc2)cc1 [Example 121, (S)-2-[4-(4-Iodo-benzyl)-phenoxymethyl]-pyrrolidine] |
| < 5 | O=C(O)CCCN1CCC[C@@H]1COc1ccc(Cc2ccc(-c3ccc(Cl)s3)cc2)cc1 [Example 116, (R)-2-{4-[4-(5-chloro-thiophen-2-yl)-benzyl]-phenoxymethyl}-pyrrolidin-1-yl}-butyric hydrogen chloride salt] |
| 5 to 20 | Clc1ccc(COc2ccc(OC[C@H]3CCCN3)cc2)c(Cl)c1 [Example 91, (R)-2-[4-(2,4-Dichloro-benzyloxy)-phenoxymethyl]-pyrrolidine hydrogen chloride salt] |
| < 5 | FC(F)(F)c1ccc(COc2ccc(OC[C@H]3CCCN3)cc2)cc1 [Example 95, (R)-2-[4-(4-Trifluoromethyl-benzyloxy)-phenoxymethyl]-pyrrolidine Hydrogen chloride salt] |
| 20 to 100 | Clc1cc2c(cc1COc1ccc(OC[C@H]3CCCN3)cc1)OCO2 [Example 98, (R)-2-[4-(6-Chloro-benzo[1,3]dioxol-5-ylmethoxy)phenoxymethyl]pyrrolidine Hydrogen chloride salt] |
| < 5 | c1csc(-c2ccc(Cc3ccc(OC[C@@H]4CCCN4)cc3)cc2)n1 [Example 150, 2-{4-[4-((S)-1-Pyrrolidin-2-ylmethoxy)-benzyl]-phenyl}-thiazole hydrochloride salt] |
| < 5 | c1ccc(Oc2ccc(OCC3CNCCN3)cc2)cc1 (centres unmarked) [Example 76, dihydrochloride] |

| SMILES | IC50 [µM] |
| --- | --- |
| Cc1ccc(Oc2ccc(OC[C@@H]3CCCN3)cc2)cc1 [compound 37] | < 5 |
| Cc1ccc(-c2ccc(Cc3ccc(OC[C@H]4CCCN4CCCC(=O)O)cc3)cc2)s1 [Example 115, (R)-2-{4-[4-(5-methyl-thiophen-2-yl)-benzyl]-phenoxymethyl}-pyrrolidin-1-yl}-butyric acid hydrogen chloride salt] | < 5 |
| c1ccc(Nc2ccc(OC[C@H]3CCCN3)cc2)cc1 [Example 44, Phenyl-[4-((R)-1-pyrrolidin-2-ylmethoxy)-phenyl]-amine] | < 5 |
| COc1ccc2nc(Oc3ccc(OC[C@H]4CCCN4)cc3)sc2c1 [Example 102, (R)-2-[4-(6-Methoxy-benzothiazol-2-yloxy)-phenoxymethyl]-pyrrolidine-Hydrogen chloride salt] | < 5 |
| Clc1ccc2nc(Oc3ccc(OC[C@H]4CCCN4)cc3)sc2c1 [Example 101, (R)-2-[4-(6-Chloro-benzothiazol-2-yloxy)-phenoxymethyl]-pyrrolidine-Hydrogen chloride salt] | < 5 |
| O=C(O)CCCN1CCC[C@@H]1COc1ccc(Cc2ccc(-c3ccco3)cc2)cc1 [Example 114, 4-{(R)-2-[4-(4-furan-2-yl-benzyl)-phenoxymethyl]-pyrrolidin-1-yl}-butyric acid hydrogen chloride salt] | < 5 |
| c1coc(-c2ccc(Oc3ccc(OC[C@H]4CCCN4)cc3)cc2)n1 [Example 148, hydrochloride salt] | < 5 |
